From patent EP0108452A1, “Treatment of gastric inflammatory disease with cytoprotective prostaglandins and histamine-2 blocking anti-secretory agents” (THE PROCTER & GAMBLE COMPANY, priority 1982, dated 1984)

Test system: Male Sprague-Dawley rats
Experiment: Cysteamine duodenal ulcer model (cysteamine gastric ulcer model)
Assay type: in vivo
Details: PG-V 5 mg/kg; for % of Cntrl.: damage grading score relative to veh. cntrl.; for % of Cntrl. / % of Redc'n.: oral x3; for Damage Grading Score: oral, x3 at 0, 4 and 8 hours after cysteamine 500 mg/kg s.c., lower score = greater protection; for % of Redc'n.: reduction of damage grading score vs veh. cntrl.
Procedure: Male Sprague-Dawley rats weighing between 180 and 230 g are fasted for 24 hours during which time they are given ad libitum access to tap water. At the end of the 24 hour fast period, 500 mg/kg of cysteamine is administered subcutaneously. At the same time, the drug or control treatment is begun. The drug or control treatment consists of administering the drug or vehicle/control at 24 hours, 28 hours, and 32 hours after the fast has begun. That is, the drug, or vehicle/control treatment is administered at 0, 4 and 8 hours after the cysteamine. 48 hours after the fasting has begun, 24 hours after the administration of cysteamine, the rats are anesthetized and sacrificed. After sacrifice, the abdominal cavity is opened, and the stomach and approximately 2 inches of duodenum are excised and removed from the rat. They are placed on a 4" x 4" labelled index card. Care must be taken not to disturb the duodenum as this could affect the grading. The stomach and duodenum are cut open along the greater curvature and longitudinally along the anti-mesenteric side, respectively. The duodenum is carefully spread out without altering the orientation of the lesions and the thickness of the mucosa. They are viewed through a stereo microscope at approximately 7x magnification for gross examination of the stomach, pylorus and duodenal surface. For each duodenum, the amount of erythema, the amount of edema, a total lesion area and the severity of the lesions are evaluated according to the grading scale in Table 1. This is also repeated for the stomach. This information is recorded. The lower the score, the greater the protection. The lowest score which an agent can achieve in this model is the maximal intrinsic activity for this agent in this model. The smallest dosage of this agent which achieves this lowest score is the lowest dosage or level of administration which yields maximal intrinsic activity for this agent. [table] In Examples I-VIII, all were conducted in accordance with the cysteamine gastric ulcer model described above. The vehicle was 0.75% polyoxyethylene (20) sorbitan mono-oleate (Tween 80). All dosages were at a rate of 2.5 ml/kg. The treatment compositions were orally dosed at a volume of 2.5 mllkg, in accordance with the model, at 24, 28 and 32 hours after the beginning of the fast, or 0, 4 and 8 hours after the subcutaneous administration of cysteamine. In preparing the prostaglandin + […] compositions, the selected amount of prostaglandin and selected amount of cimetidine were added to a volume which was equivalent to 2.5 ml/kg for each animal. This was then given to the animal at 24, 28 and 32 hours respectively, after the beginning of the fast. The damage grading score was in accordance with the table provided in the cysteamine gastric ulcer model.

[1] = Example I, Cimetidine 25 mg/kg, veh. cntrl. 9.0 ± 2.2
[2] = Example II, Cimetidine 25 mg/kg
[3] = Example II, Cimetidine 25 mg/kg, veh. cntrl. 15.5 ± 4.5
[4] = Example III, Cimetidine 50 mg/kg
[5] = Example III, Cimetidine 50 mg/kg, veh. cntrl. 18.3 ± 3.7

| Structure (SMILES) | % of Cntrl. (Example I, Cimetidine 25 mg/kg) | Damage Grading Score [1] | % of Redc'n. (Example I, Cimetidine 25 mg/kg) | % of Cntrl. [2] | Damage Grading Score [3] | % of Redc'n. [2] | % of Cntrl. [4] | Damage Grading Score [5] | % of Redc'n. [4] |
| --- | --- | --- | --- | --- | --- | --- | --- | --- | --- |
| CN/C(=N/CCSCc1nc[nH]c1C)NC#N [Cimetidine] | 133% | 12.0 ± 2.0 | -33% | 159% | 24.6 ± 1.3 | -59% | 61% | 11.1 ± 3.0 | 39% |
| CCCCCC(=O)C#C[C@H]1CCC(=O)[C@@H]1OCCCCCC(=O)O [PG-V, 9,15 dioxo-7-oxa-prost-13,14-ynoic acid] | 140% | 12.6 ± 2.6 | -40% | 106% | 16.4 ± 3.3 | -6% | 117% | 21.5 ± 4.6 | -17% |
